Source: paper PMC8406319, “The dCache Chemoreceptor TlpA of Helicobacter pylori Binds Multiple Attractant and Antagonistic Ligands via Distinct Sites” (mBio, 2021)
Where a name gives a salt, the structure may show the parent alone.

Legend:
H. pylori PMSS1 ΔtlpA = assay: Temporal chemotaxis assay (direction changes), ΔtlpA mutant; type: cell-based, Helicobacter pylori; conditions: ligands 0.1-10 mM, controls 50 μM dipyridyl, 10 mM HCl
Description: Cultures of H. pylori PMSS1 WT and ΔtlpA strains were grown overnight, back-diluted, and then incubated until an OD600 of 0.12 to 0.15 was reached. Cultures were treated with water (Mock) or various concentrations of compounds, as indicated. For panels C and E, the pH of cysteine, thiamine, malic acid, and α-ketoglutarate stocks was adjusted using NaOH to match the pH of the water used for the untreated control. The cells were immediately filmed, and direction changes were counted over a 3-s swimming period in at least 100 cells per treatment from 3 biological replicates. Data are normalized to the values for the untreated control for each strain, as described in Materials and Methods. Error bars represent the standard errors of the means. *, P < 0.05; **, P < 0.01; ***, P < 0.001 (comparisons to the untreated control per strain using two-way ANOVA with Dunnett’s multiple-comparison test).
To determine if chemoattractant responses toward arginine, fumarate, and cysteine were TlpA dependent, the same tracking experiments were repeated with a mutant lacking tlpA (ΔtlpA).
Swimming behavior assays were done with H. pylori PMSS1 strains grown in BB10 as described above. Cultures grown overnight were diluted to an optical density at 600 nm (OD600) of 0.1 in fresh BB10 and then incubated with shaking as described above until an OD600 of 0.12 to 0.15 was reached. […] The number of direction changes in a bacterial swimming trajectory was enumerated over a 3-s interval to determine whether each putative ligand is sensed as an attractant or repellent or elicits no response ([20], [25][–][30]). […] Each control is sensed by chemoreceptors other than TlpA ([24], [25], [29], [31]). The pH of BB10 upon treatment was independently assessed using a Denver Instruments pH meter. Prior to realizing that chemotactic responses may be due to medium acidification, we resuspended all ligands in pure water. Therefore, to be able to compare the results to those of previous experiments, we continued resuspending acidified ligands in pure water and then adjusting the pH of the resuspended ligand using NaOH. Cultures were filmed immediately after ligand addition at a ×400 magnification using a Hamamatsu C4742-95 digital camera with μManager software (version 1.4.22), mounted on a Nikon Eclipse E600 phase-contrast microscope. For the competition chemotaxis assay, cultures of H. pylori and ligands were prepared as described above. However, 1 min after the addition of a nonchemoactive ligand at a final concentration of 10 mM, a chemoactive ligand was added at a final concentration of 10 mM, and the cultures were then filmed as described above. Videos were relabeled to blind the observer to the strain identity. For each sample, >100 3-s-long bacterial tracks from three independent cultures were analyzed manually to identify stops followed by direction changes. Data for all biological replicates under each condition were combined, and the average number of direction changes in 3 s and the standard error of the mean were calculated. For each strain, data were normalized to the values for the untreated control under each experimental condition. Statistical analysis of the data for treated versus untreated samples was performed using two-way analysis of variance (ANOVA) and Dunnett’s multiple-comparison test.

TlpALBD = assay: Saturation transfer difference (STD) NMR; type: binding, Helicobacter pylori SS1; conditions: 25 μM TlpALBD, 2.5 mM ligand
Description: In the saturation transfer difference (STD) NMR experiment, the entire TlpALBD protein was first saturated at the protein resonances, and excess ligand was then added. As the ligand binds and releases from the receptor, saturation transfers from the protein to the bound ligand. This transfer appeared as an […] in the ligand intensity on epitopes that interacted with the TlpALBD protein. […] All STD NMR spectra were acquired in Shigemi tubes (Shigemi, USA) with a Bruker 600-MHz Advance spectrometer at 283 K using a 1^H-13^C-15^N gradient cryoprobe equipped with z-gradients. Protein resonances were saturated at −1.0 ppm (on-resonance) and 33 ppm (off-resonance), with a total saturation time of 2 s. A total of 512 scans per STD NMR experiment were acquired, and a Watergate sequence was used to suppress the residual HDO signal. A spin-lock filter with a 5-kHz strength and a duration of 10 ms was applied to suppress the protein background. On- and off-resonance spectra were stored and processed separately, and the final STD NMR spectra were obtained by subtracting the on- and off-resonance spectra. Control STD NMR experiments were performed identically in the absence of protein.

TlpALBD point mutants = assay: SPR binding affinity of TlpALBD point mutants relative to WT; design: species or system Helicobacter pylori SS1; conditions: Y228A, Y252A, D254A vs WT
Excerpt: The periplasmic portion of TlpA (TlpALBD), amino acids 28 to 299, from Helicobacter pylori SS1 was cloned into a pBH4 expression vector (pBH4_TlpALBD) to generate an N-terminal 6×His-tagged construct, with a tobacco etch virus (TEV) protease site, under the control of isopropyl-β-D-thiogalactopyranoside (IPTG) ([19]). […] TlpALBD and all point mutants were purified as described previously by Sweeney et al. ([19]).
Purified TlpALBD was immobilized on a CM5 series S sensor chip, and binding affinities were tested using a Biacore S200 instrument (GE Healthcare) as described previously ([39], [57], [59]). Briefly, proteins were captured using an amine-coupling kit (GE Healthcare), in which the carboxylmethyl dextran matrix of the sensor chip was activated by the injection of a mixture of 0.2 M 1-ethyl-3-[(3-dimethylamino)propyl]-carbodiimide (EDC) and 0.05 M N-hydroxysuccinimide (NHS), followed by the neutralization of the remaining unreacted NHS ester groups by the injection of 1 M ethanolamine-HCl (pH 8.0). Purified TlpALBD was diluted in 10 mM sodium acetate buffer (pH 4.5) at a concentration of 100 μg/ml for immobilization to the chip. A total of 8,400 response units (RU) of TlpALBD were captured on flow cell 2. […] The data sets were analyzed using Biacore S200 evaluation software 2.0.2; sensorgrams were double-reference subtracted.

N=C(N)NCCC[C@H](N)C(=O)O [Arginine, L-arginine monohydrochloride] was tested, and the “Chemotactic response of ΔtlpA mutant” value (H. pylori PMSS1 ΔtlpA) was “failed to exhibit a chemotactic response” and the “STD NMR signal on binding TlpALBD” value (TlpALBD) was “significant STD NMR signals were observed”.
N[C@@H](CS)C(=O)O [Cysteine, L-cysteine hydrochloride monohydrate] was tested, and the “Chemotactic response of ΔtlpA mutant” value (H. pylori PMSS1 ΔtlpA) was “failed to exhibit a chemotactic response”.
With O=C(O)/C=C/C(=O)O [Fumarate, sodium fumarate] the “Chemotactic response of ΔtlpA mutant” value (H. pylori PMSS1 ΔtlpA) was “failed to exhibit a chemotactic response” and the “STD NMR signal on binding TlpALBD” value (TlpALBD) was “significant STD NMR signal was detected”.
For N[C@H]1C(O)O[C@H](CO)[C@@H](O)[C@@H]1O (stereo partly drawn) [Glucosamine, D(+)-glucosamine hydrochloride], the “Effect of proximal pocket residue mutations on binding affinity” value (TlpALBD point mutants) was “No proximal pocket residues affected the binding affinity”.
